Oligonucleotides are written 5' to 3', each unit as a sugar letter and its base; * is a phosphorothioate linkage, no mark a phosphodiester; rarer units and linkages stand in square brackets, end groups in braces. Plain capitals give the bases only. d = 2'-deoxy (DNA); r = 2'-OH (RNA)
What follows are substances tested against UBE2T (assay: reporter assay of Huesken 2005). Conditions: siRNA.
Further: test concentration or dose not given here.

Going from “sense rArArGrArGrArUrGrCrUrUrGrArUrArArUrCrUdTdT / antisense rArGrArUrUrArUrCrArArGrCrArUrCrUrCrUrUdCdC” to “sense rCrArGrArGrUrArCrArCrArArCrUrCrArArCrAdTdT / antisense rUrGrUrUrGrArGrUrUrGrUrGrUrArCrUrCrUrGdGdA”, the normalised inhibition (eCFP-eYFP dual reporter) falls from 99.4% to 83%.

Going from “sense rUrGrUrUrGrGrCrArArGrArUrArArArGrArCrCdTdT / antisense rGrGrUrCrUrUrUrArUrCrUrUrGrCrCrArArCrAdTdG” to “sense rUrArUrUrArGrGrUrGrGrArGrCrCrArArCrArCdTdT / antisense rGrUrGrUrUrGrGrCrUrCrCrArCrCrUrArArUrAdTdT”, the normalised inhibition (eCFP-eYFP dual reporter) falls from 75.8% to 57.4%.

Compared with “sense rCrUrGrCrUrCrArUrGrUrCrArGrArArCrCrCrAdTdT / antisense rUrGrGrGrUrUrCrUrGrArCrArUrGrArGrCrArGdCdT”, “sense rCrGrArUrUrUrCrUrCrArCrUrCrCrArArUrUrUdTdT / antisense rArArArUrUrGrGrArGrUrGrArGrArArArUrCrGdGdA” is higher in normalised inhibition (eCFP-eYFP dual reporter): 104% for the first, 107% for the second.

Compared with “sense rUrArUrCrArUrCrCrArArArCrArUrUrGrArUrUdTdT / antisense rArArUrCrArArUrGrUrUrUrGrGrArUrGrArUrAdAdA”, “sense rGrGrCrArUrCrArCrArUrGrUrUrGrGrCrArArGdTdT / antisense rCrUrUrGrCrCrArArCrArUrGrUrGrArUrGrCrCdTdG” is higher in normalised inhibition (eCFP-eYFP dual reporter): 67.4% for the first, 87.3% for the second.

Going from “sense rCrUrUrCrCrUrCrArArGrArArUrGrCrCrArGrAdTdT / antisense rUrCrUrGrGrCrArUrUrCrUrUrGrArGrGrArArGdGdC” to “sense rUrCrArArCrArCrArGrArArArArGrGrArArGrGdTdT / antisense rCrCrUrUrCrCrUrUrUrUrCrUrGrUrGrUrUrGrAdGdT”, the normalised inhibition (eCFP-eYFP dual reporter) falls from 76% to 65.5%.

Compared with “sense rUrCrArCrUrCrCrArArUrUrUrArUrCrArUrCrCdTdT / antisense rGrGrArUrGrArUrArArArUrUrGrGrArGrUrGrAdGdA”, “sense rGrUrGrArCrUrCrCrArGrArGrUrArCrArCrArAdTdT / antisense rUrUrGrUrGrUrArCrUrCrUrGrGrArGrUrCrArCdCdA” is higher in normalised inhibition (eCFP-eYFP dual reporter): 56.8% for the first, 108% for the second.

Compared with “sense rGrArArGrGrCrCrArGrUrCrArGrCrUrArGrUrAdTdT / antisense rUrArCrUrArGrCrUrGrArCrUrGrGrCrCrUrUrCdCdT”, “sense rArGrGrArArGrArGrArUrGrCrUrUrGrArUrArAdTdT / antisense rUrUrArUrCrArArGrCrArUrCrUrCrUrUrCrCrUdCdA” is higher in normalised inhibition (eCFP-eYFP dual reporter): 91.9% for the first, 113% for the second.

First: sense rCrCrCrUrCrArArCrArUrCrGrCrArArCrUrGrUdTdT / antisense rArCrArGrUrUrGrCrGrArUrGrUrUrGrArGrGrGdAdT
Second: sense rUrCrUrGrCrUrGrGrArArGrGrArUrUrUrGrUrCdTdT / antisense rGrArCrArArArUrCrCrUrUrCrCrArGrCrArGrAdAdT
The normalised inhibition (eCFP-eYFP dual reporter) of the first is higher: 106% for the first, 87.8% for the second.

Going from “sense rUrUrArArGrCrUrArGrArArGrUrUrArUrCrArUdTdT / antisense rArUrGrArUrArArCrUrUrCrUrArGrCrUrUrArAdAdA” to “sense rGrArCrCrUrGrCrGrArGrCrUrCrArArArUrArUdTdT / antisense rArUrArUrUrUrGrArGrCrUrCrGrCrArGrGrUrCdAdT”, the normalised inhibition (eCFP-eYFP dual reporter) rises from 89.9% to 101%.

First: sense rCrArUrCrGrCrArArCrUrGrUrGrUrUrGrArCrCdTdT / antisense rGrGrUrCrArArCrArCrArGrUrUrGrCrGrArUrGdTdT
Second: sense rArCrArUrArUrCrCrUrCrArGrArArUrUrUrArAdTdT / antisense rUrUrArArArUrUrCrUrGrArGrGrArUrArUrGrUdCdA
The normalised inhibition (eCFP-eYFP dual reporter) of the first is lower: 84.8% for the first, 114% for the second.

First: sense rUrUrGrArCrCrUrCrUrArUrUrCrArGrCrUrGrCdTdT / antisense rGrCrArGrCrUrGrArArUrArGrArGrGrUrCrArAdCdA
Second: sense rCrCrUrGrArGrArGrGrUrArCrCrCrArUrUrUrGdTdT / antisense rCrArArArUrGrGrGrUrArCrCrUrCrUrCrArGrGdAdA
The normalised inhibition (eCFP-eYFP dual reporter) of the first is lower: 49.2% for the first, 78.5% for the second.

Compared with “sense rArArGrUrUrArUrCrArUrUrCrCrUrGrArGrArGdTdT / antisense rCrUrCrUrCrArGrGrArArUrGrArUrArArCrUrUdCdT”, “sense rUrGrArUrUrCrUrGrCrUrGrGrArArGrGrArUrUdTdT / antisense rArArUrCrCrUrUrCrCrArGrCrArGrArArUrCrAdAdT” is higher in normalised inhibition (eCFP-eYFP dual reporter): 79.4% for the first, 95.4% for the second.

First: sense rArUrUrGrCrCrArCrCrArArArArGrGrUrGrCrUdTdT / antisense rArGrCrArCrCrUrUrUrUrGrGrUrGrGrCrArArUdTdT
Second: sense rUrGrArUrGrArCrCrCrGrCrUrCrArUrGrGrCrUdTdT / antisense rArGrCrCrArUrGrArGrCrGrGrGrUrCrArUrCrAdGdG
The normalised inhibition (eCFP-eYFP dual reporter) of the first is lower: 43.8% for the first, 75.6% for the second.

First: sense rGrArArGrCrArUrGrCrArArGrArCrArGrArArAdTdT / antisense rUrUrUrCrUrGrUrCrUrUrGrCrArUrGrCrUrUrCdTdC
Second: sense rGrCrGrArGrCrUrCrArArArUrArUrUrArGrGrUdTdT / antisense rArCrCrUrArArUrArUrUrUrGrArGrCrUrCrGrCdAdG
The normalised inhibition (eCFP-eYFP dual reporter) of the first is higher: 97.1% for the first, 71.6% for the second.

Compared with “sense rUrCrUrArCrCrArGrArGrGrCrUrGrGrUrGrArCdTdT / antisense rGrUrCrArCrCrArGrCrCrUrCrUrGrGrUrArGrAdTdT”, “sense rArCrArCrArCrCrUrUrArUrGrArGrArArArGrGdTdT / antisense rCrCrUrUrUrCrUrCrArUrArArGrGrUrGrUrGrUdTdG” is higher in normalised inhibition (eCFP-eYFP dual reporter): 63.5% for the first, 74.7% for the second.

Going from “sense rUrGrArGrGrArArGrArGrArUrGrCrUrUrGrArUdTdT / antisense rArUrCrArArGrCrArUrCrUrCrUrUrCrCrUrCrAdTdC” to “sense rUrGrArArCrCrUrCrCrUrCrArGrArUrCrCrGrAdTdT / antisense rUrCrGrGrArUrCrUrGrArGrGrArGrGrUrUrCrAdAdA”, the normalised inhibition (eCFP-eYFP dual reporter) rises from 91.6% to 105%.

Going from “sense rCrCrArArUrUrUrArUrCrArUrCrCrArArArCrAdTdT / antisense rUrGrUrUrUrGrGrArUrGrArUrArArArUrUrGrGdAdG” to “sense rGrUrUrArUrCrArUrUrCrCrUrGrArGrArGrGrUdTdT / antisense rArCrCrUrCrUrCrArGrGrArArUrGrArUrArArCdTdT”, the normalised inhibition (eCFP-eYFP dual reporter) falls from 101% to 75.4%.

First: sense rGrArArGrArGrArUrGrCrUrUrGrArUrArArUrCdTdT / antisense rGrArUrUrArUrCrArArGrCrArUrCrUrCrUrUrCdCdT
Second: sense rArArGrGrArUrUrUrGrUrCrUrGrGrArUrGrUrUdTdT / antisense rArArCrArUrCrCrArGrArCrArArArUrCrCrUrUdCdC
The normalised inhibition (eCFP-eYFP dual reporter) of the first is higher: 85.9% for the first, 79.9% for the second.

Compared with “sense rCrUrCrArArArUrUrGrCrCrArCrCrArArArArGdTdT / antisense rCrUrUrUrUrGrGrUrGrGrCrArArUrUrUrGrArGdAdA”, “sense rGrGrArArGrGrArUrUrUrGrUrCrUrGrGrArUrGdTdT / antisense rCrArUrCrCrArGrArCrArArArUrCrCrUrUrCrCdAdG” is higher in normalised inhibition (eCFP-eYFP dual reporter): 68.5% for the first, 96.1% for the second.

Compared with “sense rUrCrArArCrArUrCrGrCrArArCrUrGrUrGrUrUdTdT / antisense rArArCrArCrArGrUrUrGrCrGrArUrGrUrUrGrAdGdG”, “sense rUrCrCrGrArUrUrUrCrUrCrArCrUrCrCrArArUdTdT / antisense rArUrUrGrGrArGrUrGrArGrArArArUrCrGrGrAdTdC” is higher in normalised inhibition (eCFP-eYFP dual reporter): 103% for the first, 109% for the second.

Going from “sense rCrCrUrGrCrGrArGrCrUrCrArArArUrArUrUrAdTdT / antisense rUrArArUrArUrUrUrGrArGrCrUrCrGrCrArGrGdTdC” to “sense rGrCrUrUrGrArUrArArUrCrUrArCrCrArGrArGdTdT / antisense rCrUrCrUrGrGrUrArGrArUrUrArUrCrArArGrCdAdT”, the normalised inhibition (eCFP-eYFP dual reporter) falls from 102% to 101%.

First: sense rCrUrUrArUrGrArGrArArArGrGrUrGrUrUrUrUdTdT / antisense rArArArArCrArCrCrUrUrUrCrUrCrArUrArArGdGdT
Second: sense rArUrCrUrArCrCrArGrArGrGrCrUrGrGrUrGrAdTdT / antisense rUrCrArCrCrArGrCrCrUrCrUrGrGrUrArGrArUdTdA
The normalised inhibition (eCFP-eYFP dual reporter) of the first is lower: 92.5% for the first, 97% for the second.

Compared with “sense rUrArArArGrArCrCrArArArUrGrGrArUrGrArCdTdT / antisense rGrUrCrArUrCrCrArUrUrUrGrGrUrCrUrUrUrAdTdC”, “sense rArGrArArUrGrCrCrArGrArCrArGrUrGrGrArCdTdT / antisense rGrUrCrCrArCrUrGrUrCrUrGrGrCrArUrUrCrUdTdG” is higher in normalised inhibition (eCFP-eYFP dual reporter): 63.2% for the first, 95% for the second.

Compared with “sense rCrCrArArArUrGrGrArUrGrArCrCrUrGrCrGrAdTdT / antisense rUrCrGrCrArGrGrUrCrArUrCrCrArUrUrUrGrGdTdC”, “sense rArCrCrCrUrGrArUrGrArCrCrCrGrCrUrCrArUdTdT / antisense rArUrGrArGrCrGrGrGrUrCrArUrCrArGrGrGrUdTdG” is higher in normalised inhibition (eCFP-eYFP dual reporter): 95.3% for the first, 101% for the second.

First: sense rCrCrCrUrGrArUrGrArCrCrCrGrCrUrCrArUrGdTdT / antisense rCrArUrGrArGrCrGrGrGrUrCrArUrCrArGrGrGdTdT
Second: sense rCrArGrGrCrArUrCrArCrArUrGrUrUrGrGrCrAdTdT / antisense rUrGrCrCrArArCrArUrGrUrGrArUrGrCrCrUrGdGdG
The normalised inhibition (eCFP-eYFP dual reporter) of the first is higher: 91.2% for the first, 90.8% for the second.

First: sense rArUrUrCrCrUrGrArGrArGrGrUrArCrCrCrArUdTdT / antisense rArUrGrGrGrUrArCrCrUrCrUrCrArGrGrArArUdGdA
Second: sense rArGrCrUrGrCrUrCrArUrGrUrCrArGrArArCrCdTdT / antisense rGrGrUrUrCrUrGrArCrArUrGrArGrCrArGrCrUdGdA
The normalised inhibition (eCFP-eYFP dual reporter) of the first is higher: 114% for the first, 79.4% for the second.

From the OligoGym collection
